According to US20160367623A1, “AGONISTS OF GUANYLATE CYCLASE USEFUL FOR THE TREATMENT OF GASTROINTESTINAL DISORDERS, INFLAMMATION, CANCER AND OTHER DISORDERS” (priority 2015, published 2016):
Bridge positions count the residues as written; N and C are the ends. Ends that are not written are not given here.

Tests used:
[1] = tested on: patients with chronic idiopathic constipation (CIC); assay: Second phase 3 CIC trial: patient disposition, reasons for discontinuation; conditions: All Randomized
[2] = tested on: patients with chronic idiopathic constipation (CIC); assay: First phase 3 CIC trial: treatment emergent adverse events, safety
[3] = tested on: patients with chronic idiopathic constipation (CIC); assay: Second phase 3 CIC trial: durable overall CSBM responders; type: in vivo, human; conditions: MRA; for Difference in Proportions (adjusted), durable overall CSBM responders / Odds Ratio (adjusted), durable overall CSBM responders: adjusted for gender
Description: Both trials include a two-week pre-treatment baseline period, a 12-week treatment period, and a two-week post-treatment period. The phase 3 CIC program was designed to support regulatory submission in the U. S.
The primary endpoint for both trials is the proportion of durable overall responders (%), which is the current regulatory endpoint required for U.S. approval in CIC. The FDA has defined a durable overall responder as a patient who fulfills both ≧3 complete spontaneous bowel movements (CSBMs) per week plus an increase of ≧1 CSBM from baseline in the same week, for 9 out of the 12 treatment weeks. In addition, the same patient must be an overall responder for at least 3 of the last 4 treatment weeks in order to be considered a durable overall responder.
Patients were selected using Rome 3 criteria modified for CIC and had (1) fewer than 3 defecations per week, (2) loose stools occurring rarely without laxatives, (3) inadequate criteria for irritable bowel syndrome with constipation (IBS-C), and (4) at least two of the following applied to at least 25% of defecations: (a) straining during evacuation, (b) lumpy or hard stools, (c) sensation of anorectal obstruction or blockage. Rome 3 requires patients to fulfill the criteria for the last 3 months with symptom onset at least 6 months prior to diagnosis.

[4] = Active Combined (N = 877), ITT Population-Excluding Duplicate Patients
[5] = Active Combined (N = 892), ITT Population
[6] = Active Combined (N = 941), All Randomized (includes Duplicate Patients)
[7] = Plecanatide 3 mg (N = 434), ITT Population-Excluding Duplicate Patients
[8] = Plecanatide 3 mg (N = 443), ITT Population
[9] = Plecanatide 3 mg (N = 470), All Randomized (includes Duplicate Patients)
[10] = Plecanatide 6 mg (N = 443), ITT Population-Excluding Duplicate Patients
[11] = Plecanatide 6 mg (N = 449), ITT Population
[12] = Plecanatide 6 mg (N = 471), All Randomized (includes Duplicate Patients)

Asn^1-Asp^2-Glu^3-Cys^4-Glu^5-Leu^6-Cys^7-Val^8-Asn^9-Val^10-Ala^11-Cys^12-Thr^13-Gly^14-Cys^15-Leu^16 (NDECELCVNVACTGCL; disulfide 4-12, 7-15) [Plecanatide, uroguanylin analogue, guanylate cyclase-C agonist; (C4:C12, C7:C15) bicycle peptide]
Discontinuation before Week 12 (EOT), primary reason Insufficient Therapeutic Effect, (%) ([1]; 3 mg (N = 470)): (0.6) %
Discontinuation before Week 12 (EOT), primary reason Insufficient Therapeutic Effect, (%) ([1]; 6 mg (N = 471)): (0.2) %
Serious TEAE Infections and infestations, Reasonable Possibility: E events ([2]; 3 mg (N = 474)): 0
Serious TEAE Infections and infestations, Reasonable Possibility: N patients ([2]; 3 mg (N = 474)): 0
Serious TEAE Infections and infestations: E events ([2]; 3 mg (N = 474)): 0
Serious TEAE Infections and infestations: N patients ([2]; 3 mg (N = 474)): 0
Serious TEAE Infections and infestations, Reasonable Possibility: E events ([2]; 6 mg (N = 457)): 0
Serious TEAE Infections and infestations, Reasonable Possibility: N patients ([2]; 6 mg (N = 457)): 0
Serious TEAE Infections and infestations: % patients ([2]; 6 mg (N = 457)): (0.4) %
Serious TEAE Infections and infestations: E events ([2]; 6 mg (N = 457)): 2
Serious TEAE Infections and infestations: N patients ([2]; 6 mg (N = 457)): 2
Durable Overall CSBM Responders, % [3, 4]: 20.4%
Non-Responders, % [3, 4]: 79.6%
Durable Overall CSBM Responders, % [3, 5]: 20.1%
Non-Responders, % [3, 5]: 79.9%
Durable Overall CSBM Responders, % [3, 6]: 19.7%
Non-Responders, % [3, 6]: 80.3%
Durable Overall CSBM Responders, % [3, 7]: 20.5%
Non-Responders, % [3, 7]: 79.5%
Durable Overall CSBM Responders, % [3, 8]: 20.1%
Non-Responders, % [3, 8]: 79.9%
Durable Overall CSBM Responders, % [3, 9]: 19.8%
Non-Responders, % [3, 9]: 80.2%
Difference in Proportions (adjusted), durable overall CSBM responders ([3]; Plecanatide 3 mg minus Placebo, All Randomized (includes Duplicate Patients)): 0.076
Difference in Proportions (adjusted), durable overall CSBM responders ([3]; Plecanatide 3 mg minus Placebo, ITT Population): 0.073
Difference in Proportions (adjusted), durable overall CSBM responders ([3]; Plecanatide 3 mg minus Placebo, ITT Population-Excluding Duplicate Patients): 0.075
Odds Ratio (adjusted), durable overall CSBM responders ([3]; Plecanatide 3 mg, All Randomized (includes Duplicate Patients)): 0.562
Odds Ratio (adjusted), durable overall CSBM responders ([3]; Plecanatide 3 mg, ITT Population): 0.586
Odds Ratio (adjusted), durable overall CSBM responders ([3]; Plecanatide 3 mg, ITT Population-Excluding Duplicate Patients): 0.583
Durable Overall CSBM Responders, % [3, 10]: 20.3%
Non-Responders, % [3, 10]: 79.7%
Durable Overall CSBM Responders, % [3, 11]: 20.0%
Non-Responders, % [3, 11]: 80.0%
Durable Overall CSBM Responders, % [3, 12]: 19.5%
Non-Responders, % [3, 12]: 80.5%
Difference in Proportions (adjusted), durable overall CSBM responders ([3]; Plecanatide 6 mg minus Placebo, All Randomized (includes Duplicate Patients)): 0.074
Difference in Proportions (adjusted), durable overall CSBM responders ([3]; Plecanatide 6 mg minus Placebo, ITT Population): 0.072
Difference in Proportions (adjusted), durable overall CSBM responders ([3]; Plecanatide 6 mg minus Placebo, ITT Population-Excluding Duplicate Patients): 0.073
Odds Ratio (adjusted), durable overall CSBM responders ([3]; Plecanatide 6 mg, All Randomized (includes Duplicate Patients)): 0.571
Odds Ratio (adjusted), durable overall CSBM responders ([3]; Plecanatide 6 mg, ITT Population): 0.587
Odds Ratio (adjusted), durable overall CSBM responders ([3]; Plecanatide 6 mg, ITT Population-Excluding Duplicate Patients): 0.589
